Data: patent US9290467B2, “Cyclic amides” (Hoffmann-La Roche Inc., priority 2012, dated 2016)

Molecular target: Cathepsin L (Homo sapiens (Human), UniProt P07711)
Test: Cathepsin enzyme inhibition assay (fluorogenic peptide substrate Z-Val-Val-Arg-AMC)
Format: biochemical
Conditions: enzyme 1 nM, substrate 20 μM, pH 6.5
Procedure: Enzyme activity is measured by observing the increase in fluorescence intensity caused by cleavage of a peptide substrate containing a fluorophore whose emission is quenched in the intact peptide.
Assay buffer: 100 mM potassium phosphate pH 6.5, EDTA-Na 5 mM, Triton X-100 0.001%, DDT 5 mM.
Enzymes (all at 1 nM): human and mouse Cathepsin S, Cat K, Cat B, Cat L
Substrate (20 μM): Z-Val-Val-Arg-AMC, except for Cat K which uses Z-Leu-Arg-AMC (both from Bachem).
AMC=7-Amino-4-Methyl-Coumarin.
Excitation 360 nm, Emission 465 nm.
Enzyme is added to the substance dilutions in 96-well microtitre plates and the reaction is started with substrate. […] IC50 are calculated by standard methods. The results are expressed in μM in the following table.

Chain of Cathepsin L (P07711 114-333): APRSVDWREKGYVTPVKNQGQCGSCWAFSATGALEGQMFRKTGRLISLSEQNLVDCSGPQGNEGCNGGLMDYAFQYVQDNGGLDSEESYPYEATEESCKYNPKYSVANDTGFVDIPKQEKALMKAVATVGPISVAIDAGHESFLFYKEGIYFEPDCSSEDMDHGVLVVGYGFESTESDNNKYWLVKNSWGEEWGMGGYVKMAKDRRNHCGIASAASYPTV

With `N#Cc1ccc2c(c1)C(=O)N[C@H](C(=O)NC1(C#N)CC1)Cc1ccc(c(Cl)c1)OCCCCO2` [Example 49, (S)-19-Chloro-8-cyano-5-oxo-12,17-dioxa-4-aza-tricyclo[16.2.2.0*6,11*]docosa-1(21),6,8,10,18(22),19-hexaene-3-carboxylic acid (1-cyano-cyclopropyl)-amide] as the molecule, how does the IC50 read?
The IC50 was 18.3 nM.

For `N#CC1(NC(=O)[C@@H]2Cc3ccc(c(Cl)c3)OCCCCOc3ccc(Br)cc3C(=O)N2)CC1` [Example 9, (S)-8-Bromo-19-chloro-5-oxo-12,17-dioxa-4-aza-tricyclo[16.2.2.0%6,11&]docosa-1(21),6,8,10,18(22),19-hexaene-3-carboxylic acid (1-cyano-cyclopropyl)-amide], which IC50 is on record?
The IC50 was 10 nM.

Which IC50 does the source give for `N#CC1(NC(=O)[C@@H]2Cc3ccc(c(I)c3)OC/C=C/COc3ccc(Cl)cc3C(=O)N2)CC1` [Example 28, (E)-(S)-8-Chloro-19-iodo-5-oxo-12,17-dioxa-4-aza-tricyclo[16.2.2.0*6,11*]docosa-1(21),6,8,10,14,18(22),19-heptaene-3-carboxylic acid (1-cyano-cyclopropyl)-amide] here?
The IC50 was 11 nM.

With `COc1ccc2c(c1)CCCCCOc1ccc(cc1Cl)C[C@@H](C(=O)NC1(C#N)CC1)NC2=O` [Example 22, (S)-19-Chloro-9-methoxy-5-oxo-17-oxa-4-aza-tricyclo[16.2.2.0*6,11*]docosa-1(21),6,8,10,18(22),19-hexaene-3-carboxylic acid (1-cyano-cyclopropyl)-amide] as the molecule, how does the IC50 read?
Its IC50 is 118 nM.

For `N#CC1(NC(=O)[C@@H]2Cc3ccc(c(Cl)c3)OCCCCOc3cc(C(F)(F)F)ccc3C(=O)N2)CC1` [Example 23, (S)-19-Chloro-5-oxo-9-trifluoromethyl-12,17-dioxa-4-aza-tricyclo[16.2.2.0*6,11*]docosa-1(21),6,8,10,18(22),19-hexaene-3-carboxylic acid (1-cyano-cyclopropyl)-amide], which IC50 is on record?
The IC50 was 50 nM.

With `N#CC1(NC(=O)[C@@H]2Cc3ccc(c(Cl)c3)OC/C=C/COc3ccccc3C(=O)N2)CC1` [Example 4, (E)-(S)-19-Chloro-5-oxo-12,17-dioxa-4-aza-tricyclo[16.2.2.0*6,11*]docosa-1(21),6(11),7,9,14,18(22),19-heptaene-3-carboxylic acid (1-cyano-cyclopropyl)-amide] as the molecule, how does the IC50 read?
Its IC50 is 13.8 nM.

`N#CC1(NC(=O)[C@@H]2Cc3ccc(c(Cl)c3)OC/C=C/CNc3ccccc3C(=O)N2)CC1` [Example 21, (E)-(S)-19-Chloro-5-oxo-17-oxa-4,12-diaza-tricyclo[16.2.2.0*6,11*]docosa-1(21),6,8,10,14,18(22),19-heptaene-3-carboxylic acid (1-cyano-cyclopropyl)-amide] was tested. Which IC50 did it give?
Its IC50 is 54 nM.

Which IC50 does the source give for `COc1ccc2c(c1)C(=O)N[C@H](C(=O)NC1(C#N)CC1)Cc1ccc(c(Cl)c1)OCCCCO2` [Example 17, (S)-19-Chloro-8-methoxy-5-oxo-12,17-dioxa-4-aza-tricyclo[16.2.2.0*6,11*]docosa-1(21),6,8,10,18(22),19-hexaene-3-carboxylic acid (1-cyano-cyclopropyl)-amide] here?
The IC50 was 10.4 nM.

How did the IC50 turn out when `N#CC1(NC(=O)[C@@H]2Cc3ccc(c(Cl)c3)OC/C=C/COc3cccc(c3)C(=O)N2)CC1` [Example 6, (E)-(S)-18-Chloro-5-oxo-11,16-dioxa-4-aza-tricyclo[15.2.2.1*6,10*]docosa-1(20),6,8,10(22),13,17(21),18-heptaene-3-carboxylic acid (1-cyano-cyclopropyl)-amide] was run?
Its IC50 is 32 nM.

Which IC50 does the source give for `N#CC1(NC(=O)[C@@H]2Cc3ccc(c(Cl)c3)OC/C=C\COc3ccc(F)c(F)c3C(=O)N2)CC1` [Example 46, (Z)—(S)-19-Chloro-7,8-difluoro-5-oxo-12,17-dioxa-4-aza-tricyclo[16.2.2.0*6,11*]docosa-1(21),6,8,10,14,18(22),19-heptaene-3-carboxylic acid (1-cyano-cyclopropyl)-amide] here?
The IC50 was 54 nM.

How did the IC50 turn out when `N#CC1(NC(=O)[C@@H]2Cc3ccc(c(Cl)c3)OC/C=C/COc3c(F)cc(F)cc3C(=O)N2)CC1` [Example 44, (E-Z)—(S)-19-Chloro-8,10-difluoro-5-oxo-12,17-dioxa-4-aza-tricyclo[16.2.2.0*6,11*]docosa-1(21),6,8,10,14,18(22),19-heptaene-3-carboxylic acid (1-cyano-cyclopropyl)-amide] was run?
The IC50 was 9.2 nM.

For `CC(C)(C)OC(=O)N1CC(c2ccc3c(c2)C(=O)N[C@H](C(=O)NC2(C#N)CC2)Cc2ccc(c(Cl)c2)OCCCCO3)C1` [Example 42, 3-[(S)-19-Chloro-3-(1-cyano-cyclopropylcarbamoyl)-5-oxo-12,17-dioxa-4-aza-tricyclo[16.2.2.0*6,11*]docosa-1(21),6,8,10,18(22),19-hexaen-8-yl]-azetidine-1-carboxylic acid tert-butyl ester], which IC50 is on record?
The IC50 was 25.5 nM.

Which IC50 does the source give for `N#CC1(NC(=O)[C@@H]2Cc3ccc(c(Cl)c3)OC/C=C/COc3cc(C(F)(F)F)ccc3C(=O)N2)CC1` [Example 20, (E)-(S)-19-Chloro-5-oxo-9-trifluoromethyl-12,17-dioxa-4-aza-tricyclo[16.2.2.0*6,11*]docosa-1(21),6,8,10,14,18(22),19-heptaene-3-carboxylic acid (1-cyano-cyclopropyl)-amide] here?
The IC50 was 47.7 nM.

`N#CC1(NC(=O)[C@@H]2Cc3ccc(c(Cl)c3)OC/C=C/COc3ccc(F)c(F)c3C(=O)N2)CC1` [Example 45, (E)-(S)-19-Chloro-7,8-difluoro-5-oxo-12,17-dioxa-4-aza-tricyclo[16.2.2.0*6,11*]docosa-1(21),6,8,10,14,18(22),19-heptaene-3-carboxylic acid (1-cyano-cyclopropyl)-amide] was tested. Which IC50 did it give?
The IC50 was 4.3 nM.

`N#CC1(NC(=O)[C@@H]2Cc3ccc(c(Cl)c3)OCCCCOc3cc(Cl)ccc3C(=O)N2)CC1` [Example 36, (S)-9,19-Dichloro-5-oxo-12,17-dioxa-4-aza-tricyclo[16.2.2.0*6,11*]docosa-1(21),6,8,10,18(22),19-hexaene-3-carboxylic acid (1-cyano-cyclopropyl)-amide] was tested. Which IC50 did it give?
Its IC50 is 50 nM.

`N#CC1(NC(=O)[C@@H]2Cc3ccc(c(Cl)c3)OC/C=C/COc3ccc(Br)cc3C(=O)N2)CC1` [Example 8, (E)-(S)-8-Bromo-19-chloro-5-oxo-12,17-dioxa-4-aza-tricyclo[16.2.2.0*6,11*]docosa-1(21),6,8,10,14,18(22),19-heptaene-3-carboxylic acid (1-cyano-cyclopropyl)-amide] was tested. Which IC50 did it give?
Its IC50 is 24.8 nM.

`N#CC1(NC(=O)[C@@H]2Cc3ccc(c(Cl)c3)OCCCCOc3ccc(C(F)(F)F)cc3C(=O)N2)CC1` [Example 37, (S)-19-Chloro-5-oxo-8-trifluoromethyl-12,17-dioxa-4-aza-tricyclo[16.2.2.0*6,11*]docosa-1(21),6,8,10,18(22),19-hexaene-3-carboxylic acid (1-cyano-cyclopropyl)-amide] was tested. Which IC50 did it give?
The IC50 was 9 nM.

For `N#CC1(NC(=O)[C@@H]2Cc3ccc(c(Cl)c3)OC/C=C/CCN3CCCC3C(=O)N2)CC1` (mixture of isomers) [Example 12, (E)-(S)-18-Chloro-5-oxo-16-oxa-4,10-diaza-tricyclo[15.2.2.0*6,10*]henicosa-1(20),13,17(21),18-tetraene-3-carboxylic acid (1-cyano-cyclopropyl)-amide], which IC50 is on record?
The IC50 was 878 nM.

For `N#CC1(NC(=O)[C@@H]2Cc3ccc(c(I)c3)OCCCCOc3ccc(Cl)cc3C(=O)N2)CC1` [Example 31, (S)-8-Chloro-19-iodo-5-oxo-12,17-dioxa-4-aza-tricyclo[16.2.2.0*6,11*]docosa-1(21),6(11),7,9,18(22),19-hexaene-3-carboxylic acid (1-cyano-cyclopropyl)-amide], which IC50 is on record?
The IC50 was 12 nM.

`N#CC1(NC(=O)[C@@H]2Cc3ccc(c(Cl)c3)OC/C=C/COc3ccc(Cl)cc3C(=O)N2)CC1` [Example 10, (E)-(S)-8,19-Dichloro-5-oxo-12,17-dioxa-4-aza-tricyclo[16.2.2.0*6,11*]docosa-1(21),6,8,10,14,18(22),19-heptaene-3-carboxylic acid (1-cyano-cyclopropyl)-amide] was tested. Which IC50 did it give?
Its IC50 is 10.3 nM.

`N#CC1(NC(=O)[C@@H]2Cc3ccc(c(Cl)c3)OC/C=C/COc3cc(Cl)ccc3C(=O)N2)CC1` [Example 33, (E)-(S)-9,19-Dichloro-5-oxo-12,17-dioxa-4-aza-tricyclo[16.2.2.0*6,11*]docosa-1(21),6,8,10,14,18(22),19-heptaene-3-carboxylic acid (1-cyano-cyclopropyl)-amide] was tested. Which IC50 did it give?
Its IC50 is 73 nM.

For `N#CC1(NC(=O)[C@@H]2Cc3ccc(c(Cl)c3)OCCCCOc3ccc(C4CNC4)cc3C(=O)N2)CC1` [Example 43, (S)-8-Azetidin-3-yl-19-chloro-5-oxo-12,17-dioxa-4-aza-tricyclo[16.2.2.0*6,11*]docosa-1(21),6,8,10,18(22),19-hexaene-3-carboxylic acid (1-cyano-cyclopropyl)-amide], which IC50 is on record?
Its IC50 is 3.1 nM.

`N#CC1(NC(=O)[C@@H]2Cc3ccc(c(Cl)c3)OC/C=C/CCN3CC(F)(F)CC3C(=O)N2)CC1` (mixture of isomers) [Example 14, (E)-(S)-18-Chloro-8,8-difluoro-5-oxo-16-oxa-4,10-diaza-tricyclo[15.2.2.0*6,10*]henicosa-1(20),13,17(21),18-tetraene-3-carboxylic acid (1-cyano-cyclopropyl)-amide] was tested. Which IC50 did it give?
Its IC50 is 6060 nM.

With `N#CC1(NC(=O)[C@@H]2Cc3ccc(c(I)c3)OC/C=C/COc3ccccc3C(=O)N2)CC1` [Example 24, (E)-(S)-19-Iodo-5-oxo-12,17-dioxa-4-aza-tricyclo[16.2.2.*6,11*]docosa-1(21),6,8,10,14,18(22),19-heptaene-3-carboxylic acid (1-cyano-cyclopropyl)-amide] as the molecule, how does the IC50 read?
Its IC50 is 164 nM.

With `CSc1ccc2c(c1)C(=O)N[C@H](C(=O)NC1(C#N)CC1)Cc1ccc(c(Cl)c1)OCCCCO2` [Example 51, (S)-19-Chloro-8-methylsulfanyl-5-oxo-12,17-dioxa-4-aza-tricyclo[16.2.2.0*6,11*]docosa-1(21),6,8,10,18(22),19-hexaene-3-carboxylic acid (1-cyano-cyclopropyl)-amide] as the molecule, how does the IC50 read?
The IC50 was 1.6 nM.
